Structures can show the parent of a compound that is named as a salt. Where two headings read alike, the source gives them in different places.
Columns and labels:
in vivo = conditions: male, iv, […]
Pseudomonas aeruginosa = experiment: Antibacterial activity assay (MIC, broth dilution); assay type: cell-based; conditions: MMX#-ATCC# 103-27853
[1] = In vivo efficacy of BAS00127538 (bacteria in spleen and blood); conditions: samples collected at 50 hours post-infection from treated animals
Experimental: To determine the efficacy of […] in vivo, samples were collected from vehicle-treated animals at 20 hours or at 50 hours post-infection from vancomycin- and BAS-treated animals.

Streptococcus pneumoniae = experiment: Antibacterial activity assay (MIC, broth dilution); assay type: cell-based
Enterococcus faecium = experiment: Antibacterial activity assay (MIC, broth dilution); assay type: cell-based; design: Bacterial Killing E. faecium: unit: ug/mL; conditions: for MIC: Enterococcus faecium
Summary of the method: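 Broth dilution MIC per CLSI (M07-A10) in cation-adjusted Mueller Hinton broth with 10% brain-heart infusion; MIC is the lowest concentration preventing visible growth, in μg/mL. Some compounds were run by broth microdilution.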

Enterococcus faecalis = experiment: Antibacterial activity assay (MIC, broth dilution); assay type: cell-based; conditions: for MIC: Enterococcus faecalis
Escherichia coli = experiment: Antibacterial activity assay (MIC, broth dilution); assay type: cell-based
Bacillus anthracis = assay type: cell-based
[2] = tested on: Burkholderia pseudomallei; assay type: cell-based; conditions: K96243; according to DOD guidelines
Staphylococcus aureus = experiment: Antibacterial activity assay (MIC, broth dilution); assay type: cell-based; design: S. aureus Killing / Bacterial Killing S. aureus: unit not given here
Yersinia pestis = assay type: cell-based; conditions: CO92; according to DOD guidelines
[3] = Pharmacokinetic study in mice (plasma concentration by LC/MS/MS)
Burkholderia mallei = assay type: cell-based; conditions: 23344; according to DOD guidelines
[4] = in vivo
[5] = Plasma / serum stability (LC/MS/MS); assay type: in vitro ADME; conditions: 10 μg/mL, 50% serum
[6] = Maximum Tolerated Dose (MTD) and in vivo toxicity at the MTD; conditions: mouse, in vivo, ip
CYP2C19 = CYP2C19 (Homo sapiens, UniProt P33261); experiment: P450 enzyme inhibition (IC50 fluorescence); assay type: in vitro ADME; conditions: substrate CEC: 3-cyano-7-ethoxycoumarin
CYP2D6 = CYP2D6 (Homo sapiens, UniProt P10635); experiment: P450 enzyme inhibition (IC50 fluorescence); assay type: in vitro ADME; conditions: substrate AMMC
HeLa cells = experiment: Cytotoxicity testing (CC50, MTS assay)
CYP3A4 = CYP3A4 (Homo sapiens, UniProt P08684); experiment: P450 enzyme inhibition (IC50 fluorescence); assay type: in vitro ADME
[7] = cation-adjusted Mueller Hinton broth, 10% BHI, read-out: MIC E. faecium C110914
[8] = cation-adjusted Mueller Hinton broth, 10% BHI, read-out: MIC E. faecium IH79985
[9] = cation-adjusted Mueller Hinton broth, 10% BHI, read-out: MIC E. faecium S1559
[10] = cation-adjusted Mueller Hinton broth, 10% BHI, read-out: MIC E. faecalis 51299
[11] = cation-adjusted Mueller Hinton broth, 10% BHI, read-out: MIC E. faecalis 51575
[12] = cation-adjusted Mueller Hinton broth, 10% BHI, read-out: MIC E. faecalis C99707
[13] = IV administration, single dose […], mice (n=3)
[14] = comparator values repeated from Table 4 (IV, […])
[15] = determined as in Example 1E (MIC)
[16] = PO administration, single oral dose 5 mg/kg, mice (n=3)

Chain of CYP3A4 (P08684 whole entry): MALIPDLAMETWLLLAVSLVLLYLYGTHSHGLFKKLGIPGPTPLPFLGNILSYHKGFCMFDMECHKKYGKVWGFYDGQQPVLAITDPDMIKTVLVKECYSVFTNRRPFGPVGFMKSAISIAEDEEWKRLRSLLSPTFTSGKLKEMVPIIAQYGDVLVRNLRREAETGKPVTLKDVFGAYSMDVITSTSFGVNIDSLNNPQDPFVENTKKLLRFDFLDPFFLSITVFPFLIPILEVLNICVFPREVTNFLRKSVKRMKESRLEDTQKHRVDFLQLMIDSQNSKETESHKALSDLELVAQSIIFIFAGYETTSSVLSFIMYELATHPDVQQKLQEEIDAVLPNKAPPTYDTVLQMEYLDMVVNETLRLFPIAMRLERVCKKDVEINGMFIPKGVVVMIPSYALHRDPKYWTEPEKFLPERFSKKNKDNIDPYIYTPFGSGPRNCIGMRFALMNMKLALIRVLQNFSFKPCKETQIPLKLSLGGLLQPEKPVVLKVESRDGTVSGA
Chain of CYP2C19 (P33261 whole entry): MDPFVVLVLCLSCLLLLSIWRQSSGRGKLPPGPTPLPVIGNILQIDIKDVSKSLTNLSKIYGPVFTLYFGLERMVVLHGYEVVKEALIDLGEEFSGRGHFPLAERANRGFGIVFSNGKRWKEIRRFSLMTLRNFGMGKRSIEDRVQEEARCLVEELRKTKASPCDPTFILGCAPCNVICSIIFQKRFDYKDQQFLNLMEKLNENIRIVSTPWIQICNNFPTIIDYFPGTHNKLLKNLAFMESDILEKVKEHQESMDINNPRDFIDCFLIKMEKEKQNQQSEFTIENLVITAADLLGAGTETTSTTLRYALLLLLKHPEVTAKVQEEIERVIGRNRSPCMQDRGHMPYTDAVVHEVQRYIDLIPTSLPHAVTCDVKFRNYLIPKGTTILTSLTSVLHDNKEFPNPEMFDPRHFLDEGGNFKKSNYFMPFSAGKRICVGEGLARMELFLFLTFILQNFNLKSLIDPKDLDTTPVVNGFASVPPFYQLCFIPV
Chain of CYP2D6 (P10635 whole entry): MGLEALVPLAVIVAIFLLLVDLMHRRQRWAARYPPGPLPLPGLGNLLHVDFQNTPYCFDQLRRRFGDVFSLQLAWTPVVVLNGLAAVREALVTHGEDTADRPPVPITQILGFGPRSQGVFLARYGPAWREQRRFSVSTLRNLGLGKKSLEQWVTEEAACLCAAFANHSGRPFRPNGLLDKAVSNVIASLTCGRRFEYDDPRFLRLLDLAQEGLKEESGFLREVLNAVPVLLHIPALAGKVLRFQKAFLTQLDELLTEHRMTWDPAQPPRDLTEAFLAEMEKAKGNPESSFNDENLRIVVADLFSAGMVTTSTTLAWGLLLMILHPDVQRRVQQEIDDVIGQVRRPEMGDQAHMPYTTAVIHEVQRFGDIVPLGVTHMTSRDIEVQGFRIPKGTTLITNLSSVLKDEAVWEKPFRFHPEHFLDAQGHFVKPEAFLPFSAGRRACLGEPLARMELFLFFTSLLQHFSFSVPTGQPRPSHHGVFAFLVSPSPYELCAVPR

CN1/C(=C/C=C/c2cc(-c3ccccc3)cc(-c3ccccc3)[o+]2)C(C)(C)c2ccccc21 [BAS00127538, 1-methyl-2,4-diphenyl-6-((1E,3E)-3-(1,3,3-trimethylindolin-2-ylidene)pro-p-1-en-1yl)pyryl-1-ium) tetrafluoroborate]
half-life (in vivo; CD1, mouse, plasma): 13.2 min | MIC Pseudomonas aeruginosa (Pseudomonas aeruginosa): > 8 µg/mL | survival of treated animals [1]: One animal treated with BAS did not survive beyond 28 hours | MIC Streptococcus pneumoniae (PRSP) (Streptococcus pneumoniae; MMX#-ATCC# 884-NA, penicillin-resistant): 8 µg/mL | MIC Streptococcus pneumoniae (Streptococcus pneumoniae; MMX#-ATCC# 1195-49619): 8 µg/mL | MIC (Enterococcus faecium; [7]): 2 µg/mL | MIC (Enterococcus faecium; [8]): 2 µg/mL | MIC (Enterococcus faecium; [9]): 2 µg/mL | MIC (Enterococcus faecalis; [10]): 2 µg/mL | MIC (Enterococcus faecalis; [11]): 2 µg/mL | MIC (Enterococcus faecalis; [12]): 2 µg/mL | MIC Enterococcus faecalis (Enterococcus faecalis; MMX#-ATCC# 101-29212): 1 µg/mL | MIC Enterococcus faecalis (VRE) (Enterococcus faecalis; MMX#-ATCC# 848-NA, vancomycin-resistant): 1 µg/mL | MIC Escherichia coli (Escherichia coli; MMX#-ATCC# 102.25922): 4 µg/mL | MIC Bacillus anthracis (spores)* (Bacillus anthracis; Ames, spores, according to DOD guidelines): 0.5 µg/mL | MIC Bacillus anthracis* (Bacillus anthracis; Ames, according to DOD guidelines): 0.5 µg/mL | MIC Bacillus anthracis Sterne (Bacillus anthracis; MMX#-ATCC# 109-NA): 0.5 µg/mL | MIC Burkholderia pseudomallei* [2]: 64 µg/mL | MIC Staphylococcus aureus (Staphylococcus aureus; MMX#-ATCC# 100-29213): 0.5 µg/mL | MIC Yersinia pestis* (Yersinia pestis): 8 µg/mL | Cl_obs [3, 13]: 711 mL/min/kg | T1/2 [3, 13]: 13.6 min | Vss_obs [3, 13]: 12.2 L/kg | T1/2 [3, 14]: 13.6 min | AUClast/D ([3]; comparator values repeated from Table 4 (IV, […]), AUClast/D): 26.9 ng·h/mL | volume of distribution ([3]; intravenous administration, single dose […], mice): 12.2 L/kg | MIC Burkholderia mallei* (Burkholderia mallei): > 64 µg/mL | detection in plasma ([4]; mouse, po, 5 mg/kg): could not be detected

CN(C)c1ccc(/C=C/c2cc(-c3ccc(Br)cc3)cc(-c3ccc(Br)cc3)[o+]2)cc1 [Compound 6jc48-1, (E)-2,4-bis(4-bromophenyl)-6-(4-(dimethylamino)styryl)pyrylium boron tetrafluoride salt]
Vd (in vivo; CD1, mouse, plasma): ~23 L/kg | Vd (in vivo; mouse, in vivo): 22.8 ± 2.9 L/kg | MIC (Enterococcus faecium; [7]): 4 µg/mL | MIC (Enterococcus faecium; [8]): 8 µg/mL | MIC (Enterococcus faecium; [9]): 2 µg/mL | MIC (Enterococcus faecium; clinical isolates sensitive to linezolid and daptomycin, n = 5, read-out: MIC E. faecium* clinical isolates): 4 to 16 µg/mL | Bacterial Killing E. faecium (Enterococcus faecium; [15]): 4 | stability in serum ([5]; after 2 hours): stable after 2 hours in serum | compound remaining ([5]; after 19 hours): 46% | MIC (Enterococcus faecalis; MIC quoted with the macromolecular synthesis data (FIG. 11), strain not given, MMS run on E. faecalis EF1509, read-out: MIC): 4 µg/mL | MIC (Enterococcus faecalis; [10]): 4 µg/mL | MIC (Enterococcus faecalis; [11]): 2 µg/mL | MIC (Enterococcus faecalis; [12]): 2 µg/mL | MIC (Enterococcus faecalis; clinical isolates sensitive to linezolid and daptomycin, n = 5, read-out: MIC E. faecalis* clinical isolates): 4 to 16 µg/mL | MTD [6]: ≤ 100 mg/kg | IC50 (CYP2C19): > 10 µM | Bacterial Killing E. coli (Escherichia coli; [15]): >64 | IC50 (CYP2D6): > 10 µM | reduction in cytotoxicity compared to the parent BAS00127538 (HeLa cells): 50 fold | Bacterial Killing S. aureus (Staphylococcus aureus; [15]): 16 | IC50 (CYP3A4; substrate BFC: 7-benzoyloxy-4-triflluoromethyl coumarin, read-out: P450 enzyme inhibition (IC50 fluorescence) CYP3A4/BFC): 1.3 µM | IC50 (CYP3A4; substrate DBF: dibenzylfluorescein, read-out: P450 enzyme inhibition (IC50 fluorescence) CYP3A4/DBF): > 10 µM | AUClast/D [3, 13]: 5.36e+08 ± 4.7e+07 ng·h/mL | Cl_obs [3, 13]: 23.6 ± 1.7 mL/min/kg | T1/2 [3, 13]: 798 ± 108 min | AUCInf [3, 16]: 90 ng·h/mL | AUClast [3, 16]: 46.9 ng·h/mL | Cmax [3, 16]: 19.1 ng/mL | Finf (inferred bioavailability) [3, 16]: 2.54% | Flast (bioavailability at last time point) [3, 16]: 1.9% | T1/2 [3, 16]: 167 min | Cl—obs [3, 14]: 23.6 ± 1.7 mL/min/kg | T1/2 [3, 14]: 798 ± 108 min | AUCextrap ([4]; CD1, mouse, po, 5 mg/kg): 48.6% | Vss_obs ([4]; CD1, mouse, po, 5 mg/kg): 1.75 L/kg | Volume of distribution at equilibrium (Vs) ([4]; male, CD1, mouse, iv, […]): 22.8 | Vss_obs ([4]; male, CD1, mouse, iv, […]): 22.8 ± 2.9 L/kg
